Test results from patent US5683668A, “Method of generating nitric oxide gas using nitric oxide complexes” (The United States of America as represented by the …, priority 1996, dated 1997).
Like-named read-outs stand apart in the source and are kept apart here. One block for each compound: values may come before it.

Experiments:
[1] = NO release half-life by disappearance of UV absorption in phosphate buffer; type: physicochemical
Method: Ultraviolet data were obtained in 0.01M NaOH to avoid this degradation problem. […] Kinetic data were obtained by diluting stock solutions (0.01M NaOH) of each compound with pH 7.4 phosphate buffer (0.1M) as needed to produce final solutions having compound concentrations in the range of 90-120 μM.

[2] = % NO by weight of the NO complexes; type: physicochemical
[3] = % NO yield on acid release, thermal energy analyzer (TEA); type: physicochemical; conditions: weight percent of the theoretical maximum, dilute aqueous HCl
Method: NO gas was generated from compounds 2, 6, 10, 11, and 14 of Example 1, as well as H2 N(CH2)3 N[N(O)NO^- ](CH2)4 NH(CH2)3 NH3^+, using the procedure set forth below. The percent NO yield was then calculated for each of these NO adducts.
The apparatus comprises a first vessel 10 having an inlet 11 and an outlet 12 and contains mineral oil (or other heavy liquid) to prevent backflow. The outlet 12 of vessel 10 is connected to a first inlet 21 of second vessel 20, which also has a second inlet 22 and an outlet 23. The second vessel 20 contained either the solid NO complex or an aqueous solution of the NO complex. An addition funnel 30 is connected to the second inlet 22 of second vessel 20 so as to provide a means of introducing dilute aqueous HCl into second vessel 20. The outlet 23 of second vessel 20 is connected to the inlet 41 of condenser 40, and the outlet 42 of condenser 40 is connected to the inlet 51 of third vessel 50. The condenser 40 and third vessel 50 function to capture any mist carried through the apparatus in the gas stream. The outlet 52 of third vessel 50 is connected to drying towers 60 and 70 which contain desiccant such as calcium chloride or molecular sieves and contain an outlet 71 for gas passage.
In use, nitrogen gas was passed through the apparatus through the inlet 11 of first vessel 10 to flush oxygen from the apparatus. Acidic solution was then introduced into second vessel 20 by way of addition funnel 30, and NO gas was generated in second vessel 20. The thus generated NO gas flowed through the outlet 23 of second vessel 20, through the condenser 40, into the third vessel 50, into the drying towers 60 and 70, and out the […].
The NO gas released through the outlet 71 of drying column 70 was fed into a thermal energy analyzer (TEA), which generates a signal proportional to the quantity of NO gas present. The yield of NO gas, as a weight percent of the theoretical maximum, obtained for each of the compounds tested is given in Table III.

[4] = unless stored at -78° C.; prior art salts; cited from earlier work
[5] = Stability of the adducts as solids; type: physicochemical; conditions: applicant's statements; room temperature, closed containers or air
[6] = Equivalents of NO released at 22° C.; type: physicochemical
[7] = Refrigerated storage stability by combustion analysis; type: physicochemical; conditions: refrigerator, several months
Source text: Samples of compound 11 of Example 1 were stored in a refrigerator over the course of several months.

[8] = NO gas yield measured volumetrically in a gas buret; type: physicochemical
Method: In a separate series of experiments, the generated gas was also collected in a gas buret and the yields were measured volumetrically. Yields ranged from 70-90% of theoretical. For example, when 1.0 g of CH3 N(N2 O2^-)CH2 CH2 NH3^+ was added to 5 ml concentrated H2 SO4, 285 ml NO gas (85%) was trapped in the buret.

[9] = 22° C., pH 7.4, 0.1M phosphate buffer, read-out: t1/2
[10] = phosphate buffer, buffered aqueous solution, pH 7.4, 22° C., read-out: half-life (converted)

SMILES: CCN(CC)[N+]([O-])=NO [CH3 CH2 N(N2 O2^-)CH2 CH3.Na^+, reference compound]
% NO By Wt. [2]: 38.7%

SMILES: CCNCCCN(CC)[N+]([O-])=NO [Compound 10, 1-Hydroxy-2-oxo-3-(N-ethyl-3-aminopropyl)-3-ethyl-1-1-triazene]
% NO Yield [3]: 100%
half-life [1, 9]: 1.2 h

SMILES: CC(C)N/[N+]([O-])=N/O
stability in the solid state [4]: slow decomposition even in the solid state unless stored at -78 °C

SMILES: CCN(CC)[N+]([O-])=NO [DEA/NO]
stability in the solid state [4]: slow decomposition even in the solid state unless stored at -78 °C

SMILES: CC(C)N(CCCN)[N+]([O-])=NO [Compound 1, 1-Hydroxy-2-oxo-3-(3-aminopropyl)-3-isopropyl-1-triazene]
half-life [1, 9]: 1.55 h

SMILES: CCNCCN(CC)[N+]([O-])=NO [Compound 8, 1-Hydroxy-2-oxo-3-(N-ethyl-2-aminoethyl)-3-ethyl-1-triazene]
half-life [1, 9]: 5.45 h
% NO By Wt. [2]: 34.1%
equivalents of NO released [6]: two equivalents

SMILES: CNCCN(C)[N+]([O-])=NO [Compound 2, 1-Hydroxy-2-oxo-3-(N-methyl-2-aminoethyl)-3-methyl-1-triazene]
% NO Yield [3]: 98%
half-life [1, 9]: 0.602 h
half-life [1, 10]: 0.602 h
% NO By Wt. [2]: 40.5%
equivalents of NO released [6]: two equivalents

SMILES: NCCN(CCN)[N+]([O-])=NO [Compound 14, 1-Hydroxy-2-oxo-3,3-di (2-aminoethyl)-1-triazene]
% NO Yield [3]: 97%
half-life [1, 9]: 56.7 h
half-life (in words) ([1]; comparison between adducts differing in R' or type): too stable to permit monitoring over a sufficient number of half-lives
half-life relative to the diethylamine/NO adduct ([1]; fold over diethylamine/NO adduct): over 200 times
half-life [1, 10]: 56 h
% NO By Wt. [2]: 36.8%
equivalents of NO released [6]: two equivalents

SMILES: CCCN(CCCN)[N+]([O-])=NO [Compound 11, 1-Hydroxy-2-oxo-3-(3-aminopropyl)-3-propyl-1-triazene]
% NO Yield [3]: 110%
half-life [1, 9]: 1.28 h
equivalents of NO released [6]: two equivalents
change in elemental composition on storage [7]: no change in elemental composition was observed

SMILES: NCCCNCCCCN(CCCN)[N+]([O-])=NO [spermine/NO adduct]
% NO Yield [3]: 95%
equivalents of NO released [6]: two equivalents

SMILES: CC(C)N(CCCN)[N+]([O-])=NO.CC(C)NCCCN
stability as solid [5]: not stable enough to obtain combustion analytical data

SMILES: CN(CCN)[N+]([O-])=NO [Compound 6, 1-Hydroxy-2-oxo-3-(2-aminoethyl)-3-methyl-1-triazene]
% NO Yield [3]: 110%
volume of NO gas trapped ([8]; 1.0 g adduct added to 5 ml concentrated H2 SO4): 285 mL
volumetric NO yield ([8]; percent of theoretical, gas buret): 85%
half-life [1, 9]: 0.667 h
half-life [1, 10]: 0.667 h
% NO By Wt. [2]: 45%
% NO By Wt. ([2]; listed as CH3 N(N2 O2^-)CH2 CH2 NH3^+): 44.7%
equivalents of NO released [6]: two equivalents

The next lines start with the values.

half-life [1, 9]: 4.73 h
SMILES: NCCCN(CCCN)[N+]([O-])=NO [Compound 15, 1-Hydroxy-2-oxo-3,3-di(3-aminopropyl)-1-triazene]

half-life [1, 9]: 0.228 h
SMILES: CN(CCCN)[N+]([O-])=NO [Compound 9, 1-Hydroxy-2-oxo-3-(3-aminopropyl)-3-methyl-1-triazene]

half-life [1, 9]: 0.045 h
SMILES: CNCCCCCCN(C)[N+]([O-])=NO [Compound 5, 1-Hydroxy-2-oxo-3-(N-methyl-6-aminohexyl)-3-methyl-1-triazene]

stability as solid [5]: hygroscopic
half-life [1, 9]: 2.75 h
SMILES: NCCCCN(CCCN)[N+]([O-])=NO [Compound 16, 1-Hydroxy-2-oxo-3-(3-aminopropyl)-3-(4-aminobutyl)-1-triazene]

half-life [1, 9]: 1.92 h
SMILES: NCCCN(C1CCCCC1)[N+]([O-])=NO [Compound 13, 1-Hydroxy-2-oxo-3-(3-aminopropyl)-3-cyclohexyl-1-triazene]

half-life [1, 9]: 5.55 h
half-life [1, 10]: 5.55 h
% NO By Wt. [2]: 40.5%
SMILES: CCN(CCN)[N+]([O-])=NO [Compound 7, 1-Hydroxy-2-oxo-3-(2-aminoethyl)-3-ethyl-1-triazene]

half-life [1, 9]: 0.0217 h
half-life [1, 10]: 0.0217 h
SMILES: CNCCCCN(C)[N+]([O-])=NO [Compound 4, 1-Hydroxy-2-oxo-3-(N-methyl-4-aminobutyl)-3-methyl-1-triazene]

half-life [1, 9]: 1.48 h
SMILES: CC(C)NCCCN(C(C)C)[N+]([O-])=NO [Compound 12, 1-Hydroxy-2-oxo-3-(N-isopropyl-3-aminopropyl)-3-isopropyl-1-triazene]

half-life [1, 9]: 0.168 h
half-life [1, 10]: 0.168 h
SMILES: CNCCCN(C)[N+]([O-])=NO [Compound 3, 1-Hydroxy-2-oxo-3-(N-methyl-3-aminopropyl)-3-methyl-1-triazene]
